From ChEMBL document CHEMBL1697731, “Cheminformatics analysis of assertions mined from literature that describe drug-induced liver injury in different species” (Chem Res Toxicol, 2010) come the findings set out here.

Structures are written as SMILES.

The test system of data set [1] is Hepatotoxicity. The data set can be described thus: Literature-mined compound from Fourches et al multi-species drug-induced liver injury (DILI) dataset, effect in non-rodents.
Data set [2] relates to Hepatotoxicity. In words: Literature-mined compound from Fourches et al multi-species drug-induced liver injury (DILI) dataset, effect in humans. The conditions noted are these: human.
Data set [3] concerns Hepatotoxicity. The data set can be described thus: Literature-mined compound from Fourches et al multi-species drug-induced liver injury (DILI) dataset, effect in rodents. The conditions noted are these: rodentia.

As to `Cc1ccc(C)c(OCCCC(C)(C)C(=O)O)c1` [GEMFIBROZIL], the Hepatotoxicity entry in data set [1] was “no drug-induced liver injury reported”; in data set [2], “drug-induced liver injury reported”; in data set [3], “drug-induced liver injury reported”.
Consider `CN(C)c1ccc(C(=C2C=CC(=[N+](C)C)C=C2)c2ccc(N(C)C)cc2)cc1.[Cl-]` [GENTIAN VIOLET], for which the Hepatotoxicity entry in data set [1] is given as “no drug-induced liver injury reported”; in data set [2] it was “no drug-induced liver injury reported”; in data set [3] it was “drug-induced liver injury reported”.
With `CC1(C)CC(=O)N(CCCCN2CCN(c3ncccn3)CC2)C(=O)C1` [GEPIRONE], the Hepatotoxicity entry in data set [1] is “no drug-induced liver injury reported”; in data set [2], “drug-induced liver injury reported”; in data set [3], “no drug-induced liver injury reported”.
Consider `C#C[C@]1(O)C=C[C@H]2[C@@H]3CCC4=CC(=O)CC[C@@H]4[C@H]3CC[C@@]21CC` [GESTODENE], for which the Hepatotoxicity result is “no drug-induced liver injury reported” in data set [1], “drug-induced liver injury reported” in data set [2] and “no drug-induced liver injury reported” in data set [3].
For the compound `O=C(OCC(O)CO)c1ccccc1Nc1ccnc2cc(Cl)ccc12` (configuration not stated) [GLAFENINE], the Hepatotoxicity result in data set [1] (Liver) is reported as “no drug-induced liver injury reported”; in data set [2] (Liver) it was “drug-induced liver injury reported”; in data set [3] (Liver), “no drug-induced liver injury reported”.
Turning to `Cc1ccc(S(=O)(=O)NC(=O)NN2CC3CCCC3C2)cc1` (configuration not stated) [GLICLAZIDE], the results for the Hepatotoxicity entry in data set [1], in data set [2] and in data set [3] were “no drug-induced liver injury reported”, “drug-induced liver injury reported” and “no drug-induced liver injury reported”, respectively.
Consider `N[C@H]1C(O)O[C@H](CO)[C@@H](O)[C@@H]1O` (some centres not stated) [GLUCOSAMINE], for which the values for the Hepatotoxicity result in data set [1], in data set [2] and in data set [3] were “no drug-induced liver injury reported”, “no drug-induced liver injury reported” and “drug-induced liver injury reported”, respectively.
`N[C@@H](CCC(=O)O)C(=O)O` [GLUTAMIC ACID]: the Hepatotoxicity result in data set [1] is recorded as “no drug-induced liver injury reported”; in data set [2], “no drug-induced liver injury reported”; in data set [3], “drug-induced liver injury reported”.
Regarding `NC(=O)CC[C@H](N)C(=O)O` [GLUTAMINE], the Hepatotoxicity entry in data set [1], in data set [2] and in data set [3] was “drug-induced liver injury reported” in each case.
Consider `CCC1(c2ccccc2)CCC(=O)NC1=O` (configuration not stated) [GLUTETHIMIDE], for which the Hepatotoxicity result was “no drug-induced liver injury reported” in data set [1], “drug-induced liver injury reported” in data set [2] and “no drug-induced liver injury reported” in data set [3].
With `COc1ccc(Cl)cc1C(=O)NCCc1ccc(S(=O)(=O)NC(=O)NC2CCCCC2)cc1` [GLYBURIDE], the figures for the Hepatotoxicity result in data set [1], in data set [2] and in data set [3] were “no drug-induced liver injury reported”, “drug-induced liver injury reported” and “drug-induced liver injury reported”, respectively.
In the case of `OCC(O)CO` [GLYCERIN], the Hepatotoxicity result in data set [1], in data set [2] and in data set [3] was “drug-induced liver injury reported” each time.
As for `Cc1cc2c(C(C)C)c(O)c(O)c(C=O)c2c(O)c1-c1c(C)cc2c(C(C)C)c(O)c(O)c(C=O)c2c1O` [GOSSYPOL], the Hepatotoxicity entry is listed as “no drug-induced liver injury reported” in data set [1], “drug-induced liver injury reported” in data set [2] and “drug-induced liver injury reported” in data set [3].
As for `COC1=CC(=O)C[C@@H](C)[C@]12Oc1c(Cl)c(OC)cc(OC)c1C2=O` [GRISEOFULVIN], the Hepatotoxicity entry is listed as “no drug-induced liver injury reported” in data set [1], “drug-induced liver injury reported” in data set [2] and “drug-induced liver injury reported” in data set [3].
For `Cc1ccc(C(C)C)cc2c(C)ccc1-2` [GUAIAZULEN], the Hepatotoxicity result in data set [1] is “no drug-induced liver injury reported”; in data set [2] it was “no drug-induced liver injury reported”; in data set [3], “drug-induced liver injury reported”.
For `CC(=O)O.N=C(N)N/N=C/c1c(Cl)cccc1Cl` [GUANABENZ ACETATE], the Hepatotoxicity result in data set [1] is “no drug-induced liver injury reported”; in data set [2], “no drug-induced liver injury reported”; in data set [3] it was “drug-induced liver injury reported”.
Consider `Cl.N=C(N)N` [GUANIDINE HYDROCHLORIDE], for which the Hepatotoxicity result in data set [1] is “no drug-induced liver injury reported”; in data set [2] it was “drug-induced liver injury reported”; in data set [3], “drug-induced liver injury reported”.
As for `CC1=C(CCC(=O)O)c2cc3nc(cc4[nH]c(cc5[nH]c(cc1n2)c(C)c5C(C)O)c(C)c4C(C)O)C(C)=C3CCC(=O)O` (configuration not stated) [HAEMAPORPHYRIN], the Hepatotoxicity entry in data set [1] is “no drug-induced liver injury reported”; in data set [2] it was “no drug-induced liver injury reported”; in data set [3], “drug-induced liver injury reported”.
`O=C(CC1NCCCC1O)Cn1cnc2cc(Br)c(Cl)cc2c1=O` (configuration not stated) [HALOFUGINONE]: the Hepatotoxicity result is given as “no drug-induced liver injury reported” in data set [1], “drug-induced liver injury reported” in data set [2] and “drug-induced liver injury reported” in data set [3].
Regarding `O=C(CCCN1CCC(O)(c2ccc(Cl)cc2)CC1)c1ccc(F)cc1` [HALOPERIDOL], the Hepatotoxicity entry in data set [1], in data set [2] and in data set [3] was “drug-induced liver injury reported” in each case.
For the compound `FC(F)(F)C(Cl)Br` (configuration not stated) [HALOTHANE], the Hepatotoxicity result in data set [1], in data set [2] and in data set [3] was “drug-induced liver injury reported” in each case.
`COc1ccc([C@@H]2CC(=O)c3c(O)cc(O[C@@H]4O[C@H](CO[C@@H]5O[C@@H](C)[C@H](O)[C@@H](O)[C@H]5O)[C@@H](O)[C@H](O)[C@H]4O)cc3O2)cc1O` [HESPERIDIN]: the Hepatotoxicity entry in data set [1] is “no drug-induced liver injury reported”; in data set [2], “drug-induced liver injury reported”; in data set [3] it was “drug-induced liver injury reported”.
In the case of `Oc1c(Cl)cc(Cl)c(Cl)c1Cc1c(O)c(Cl)cc(Cl)c1Cl` [HEXACHLOROPHENE], the Hepatotoxicity result in data set [1] is recorded as “no drug-induced liver injury reported”; in data set [2], “no drug-induced liver injury reported”; in data set [3] it was “drug-induced liver injury reported”.
Turning to `CC[C@H](c1ccc(O)cc1)[C@@H](CC)c1ccc(O)cc1` [HEXESTROL], the Hepatotoxicity entry is on record as “no drug-induced liver injury reported” in data set [1], “no drug-induced liver injury reported” in data set [2] and “drug-induced liver injury reported” in data set [3].
